Key:
Type in all cases: cell-based
FGFR3 V555M = biological target: T1, FGFR3 V555M (Homo sapiens, UniProt P22607, V555M); test: Cell proliferation assay for FGFR3 V555M in BaF3; details: BaF3 cells expressing FGFR3 V555M fusion, 48 hrs, CellTiter Glo
T1 construct: P41212 (Transcription factor ETV6)
Experimental: For the compounds of the Examples of the present invention, cell strains of TEL-FGFR3 WT intracellular kinase domain fusion protein or intracellular domain fusion protein containing FGFR3 V555M or FGFR3 N540K mutation were stably expressed in Baf cells by transfection and were used to determine the cell proliferation effect of BaF3-Tel-FGFR3 WT. FGFR3 V555M or FGFR3 N540K. The specific test process was as follows: • 1) The cell suspension was plated into a 96-well plate containing growth medium (DMEM containing 1% Glutamax, 10% FBS and 1% Pen/Strep) at 2000-4000 cells/90 μL/per well, and then the mixture was incubated overnight at 37° C. and 5% CO2. • 2) 10 μL of growth medium containing a 10-fold stock solution of test compound was added to the cell culture (9 dose points, 3× serial dilution, starting from 1 μM, finally 0.3% DMSO). • 3) The mixture was incubated at 37° C. and 5% CO2 for 48 hrs. • 4) 50 μL of CellTiter Glo (CTG) reagent was added to the cell-containing 96-well plate, and the plate was then incubated at room temperature for 10 min. • 5) Relative light units (RLUs) were measured on a microplate reader with a luminescence detection module. RLU values were normalized to % survival, and concentration-response curves were plotted using Prism to calculate IC50 (nM).

FGFR2 V564L = biological target: T2, FGFR2 V564L (Homo sapiens, UniProt P21802, V564L); test: Cell proliferation assay for Tel-FGFR2 V564L in BaF3; details: BaF3 cells expressing FGFR2 V564L fusion, 48 hrs, CellTiter Glo
T2 construct: P41212 (Transcription factor ETV6)
T2 sequence (P21802 481-770 V564L limits assumed): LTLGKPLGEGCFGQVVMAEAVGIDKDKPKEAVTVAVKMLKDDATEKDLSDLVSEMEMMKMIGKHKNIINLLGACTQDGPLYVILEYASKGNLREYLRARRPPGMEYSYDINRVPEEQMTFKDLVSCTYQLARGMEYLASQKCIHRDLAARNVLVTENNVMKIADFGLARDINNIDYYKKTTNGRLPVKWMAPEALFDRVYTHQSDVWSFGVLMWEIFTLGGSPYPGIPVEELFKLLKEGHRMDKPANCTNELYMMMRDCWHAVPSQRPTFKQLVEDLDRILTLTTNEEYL
Experimental: (§1) By transfection, cell strains of the intracellular kinase domain fusion protein of TEL-FGFR2 WT or the intracellular domain fusion proteins containing FGFR2 V564, V564F, V564L, N549K and K659M mutations were stably expressed in Baf cells. On day 1, the cell suspension was plated into a 96-well plate containing growth medium (DMEM containing 1% Glutamax, 10% FBS and 1% Pen/Strep) at 2000-4000 cells/90 μL/per well, and then the mixture was incubated overnight at 37° C. and 5% CO2. On day 2, 10 μL of growth medium containing a 10-fold stock solution of test compound was added to the cell culture (9 dose points, 3× serial dilution, starting from 1 μM, finally 0.3% DMSO). After incubation at 37° C. and 5% CO2 for 48 hrs, 50 μL of CellTiter Glo (CTG) reagent was added to the cell-containing 96-well plate on day 3, and the plate was then incubated at room temperature for 10 min. Then relative light units (RLUs) were measured on a microplate reader with a luminescence detection module. RLU values were normalized to % survival, and concentration-response curves were plotted using Prism to calculate IC50 (nM).

FGFR2 V564F = biological target: T3, FGFR2 V564F (Homo sapiens, UniProt P21802, V564F); test: Cell proliferation assay for Tel-FGFR2 V564F in BaF3; details: BaF3 cells expressing FGFR2 V564F fusion, 48 hrs, CellTiter Glo
T3 construct: P41212 (Transcription factor ETV6)
T3 sequence (P21802 481-770 V564F limits assumed): as the sequence (P21802 481-770 V564L limits assumed) above, with L84F counted along it
Experimental: as §1

FGFR2 N549K = biological target: T4, FGFR2 N549K (Homo sapiens, UniProt P21802, N549K); test: Cell proliferation assay for Tel-FGFR2 N549K in BaF3; details: BaF3 cells expressing FGFR2 N549K fusion, 48 hrs, CellTiter Glo
T4 construct: P41212 (Transcription factor ETV6)
T4 sequence (P21802 481-770 N549K limits assumed): as the sequence (P21802 481-770 V564L limits assumed) above, with N69K, L84V counted along it
Experimental: as §1

FGFR2 V564I = biological target: T5, FGFR2 V564I (Homo sapiens, UniProt P21802, V564I); test: Cell proliferation assay for Tel-FGFR2 V564I in BaF3; details: BaF3 cells expressing FGFR2 V564I fusion, 48 hrs, CellTiter Glo
T5 construct: P41212 (Transcription factor ETV6)
T5 sequence (P21802 481-770 V564I limits assumed): as the sequence (P21802 481-770 V564L limits assumed) above, with L84I counted along it
Experimental: as §1

T1 sequence (P22607 472-761 V555M limits assumed): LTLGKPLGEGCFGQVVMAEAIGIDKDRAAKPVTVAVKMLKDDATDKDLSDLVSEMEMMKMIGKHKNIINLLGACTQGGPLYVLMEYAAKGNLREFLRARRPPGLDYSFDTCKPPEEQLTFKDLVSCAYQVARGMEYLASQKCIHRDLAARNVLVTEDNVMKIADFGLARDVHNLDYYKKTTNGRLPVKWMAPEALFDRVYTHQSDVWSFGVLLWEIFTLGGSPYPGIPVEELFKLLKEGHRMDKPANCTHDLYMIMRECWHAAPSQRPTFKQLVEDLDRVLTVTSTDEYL

SMILES | IC50 (FGFR3 V555M) | IC50 (FGFR2 V564L) | IC50 (FGFR2 V564F) | IC50 (FGFR2 N549K) | IC50 (FGFR2 V564I)
C=CC(=O)N1CC[C@H](n2cc(C#Cc3ccc4oc(NC)nc4c3)c3c(N)ncnc32)C1 [Example 7, (S)-1-(3-(4-amino-5-((2-(methylamino)benzo[d]oxazol-5-yl)ethynyl)-7H-pyrrolo[2,3-d]pyrimidin-7-yl)pyrrolidin-1-yl)prop-2-en-1-one] | 5 to 50 nM | 5 to 50 nM | 0.5 to 5 nM | 5 to 50 nM | 
C=CC(=O)N1CC[C@H](n2nc(C#Cc3cnc4sc(C)nc4c3)c3c(N)ncnc32)C1 [Example 41, (S)-1-(3-(4-amino-3-((2-methylthiazolo[5,4-6]pyridin-6-yl)ethynyl)-1H-pyrazolo [3,4-d]pyrimidin-1-yl)pyrrolidin-1-yl)prop-2-en-1-one] | 50 to 500 nM | 0.5 to 5 nM | 5 to 50 nM | 5 to 50 nM | 
C=CC(=O)N1CC[C@H](n2cc(C#Cc3ccc4sc(CC)nc4c3)c3c(N)ncnc32)C1 [Example 44, (S)-1-(3-(4-amino-5-((2-ethylbenzo[d]thiazol-5-yl)ethynyl)-7H-pyrrolo[2,3-d]pyrimidin-7-yl)pyrrolidin-1-yl)prop-2-en-1-one] | 5 to 50 nM | 0.5 to 5 nM | 0.5 to 5 nM | 0.5 to 5 nM | ≤ 0.5 nM
C=CC(=O)N1CC[C@H](n2cc(C#Cc3ccc4sc(C(F)F)nc4c3)c3c(N)ncnc32)C1 [Example 45, (S)-1-(3-(4-amino-5-((2-(difluoromethyl)benzo[d]thiazol-5-yl)ethynyl)-7H-pyrrolo[2,3-d]pyrimidin-7-yl)pyrrolidin-1-yl)prop-2-en-1-one] | 5 to 50 nM | 0.5 to 5 nM | 0.5 to 5 nM | 0.5 to 5 nM | 
C=CC(=O)N1CC[C@H](n2cc(C#Cc3cc4nc(C5CC5)sc4cc3F)c3c(N)ncnc32)C1 [Example 48, (S)-1-(3-(4-amino-5-((2-cyclopropyl-6-fluorobenzo [d]thiazol-5-yl)ethynyl)-7H-pyrrolo[2,3-d]pyrimidin-7-yl)pyrrolidin-1-yl)prop-2-en-1-one] | 0.5 to 5 nM | 0.5 to 5 nM | 0.5 to 5 nM | 0.5 to 5 nM | ≤ 0.5 nM
C=CC(=O)N1CC[C@H](n2nc(C#Cc3ccc4sc(C)nc4c3)c3c(N)ncnc32)C1 [Example 52, (S)-1-(3-(4-amino-3-((2-methylbenzo[d]thiazol-5-yl)ethynyl)-1H-pyrazolo [3,4-d]pyrimidin-1-yl)pyrrolidin-1-yl)prop-2-en-1-one] | 5 to 50 nM | 5 to 50 nM | 0.5 to 5 nM | 5 to 50 nM | 
C=CC(=O)N1CC[C@H](n2nc(C#Cc3ccc4sc(C5CC5)nc4c3)c3c(N)ncnc32)C1 [Example 54, (S)-1-(3-(4-amino-3-((2-cyclopropylbenzo[d]thiazol-5-yl)ethynyl)-1H-pyrazolo [3,4-d]pyrimidin-1-yl)pyrrolidin-1-yl)prop-2-en-1-one] | 5 to 50 nM | 0.5 to 5 nM | 0.5 to 5 nM | 0.5 to 5 nM | 
C=CC(=O)N1CC[C@H](n2nc(C#Cc3ccc4sc(C(F)F)nc4c3)c3c(N)ncnc32)C1 [Example 55, (S)-1-(3-(4-amino-3-((2-(difluoromethyl)benzo[d]thiazol-5-yl)ethynyl)-1H-pyrazolo[3,4-d]pyrimidin-1-yl)pyrrolidin-1-yl)prop-2-en-1-one] | 5 to 50 nM | 5 to 50 nM | 5 to 50 nM | 0.5 to 5 nM | 
C=CC(=O)N1CC[C@H](n2cc(C#Cc3ccc4oc(C(F)F)nc4c3)c3c(N)ncnc32)C1 [Example 71, (S)-1-(3-(4-amino-5-((2-(difluoromethyl)benzo[d]oxazol-5-yl)ethynyl)-7H-pyrrolo[2,3-d]pyrimidin-7-yl)pyrrolidin-1-yl)prop-2-en-1-one] | 5 to 50 nM | 5 to 50 nM | 0.5 to 5 nM | 0.5 to 5 nM | 

— US20230303575A1, “FGFR AND MUTATION INHIBITOR THEREOF, PREPARATION METHOD THEREFOR AND USE THEREOF” (Abbisko Therapeutics Co., Ltd., priority 2020, published 2023)
